Results: US8470841B2, “Heterocyclic compounds, processes for their preparation, medicaments comprising these compounds, and the use thereof” (Sanofi, priority 2008, dated 2013)
Where two headings read alike, the source gives them in different places.

What was measured:
human ACC2 = human ACC2 (Homo sapiens (Human), UniProt O00763); format: biochemical; conditions: for IC50: human ACC2, read-out: IC50 (hACC2)
rACC2 = rACC2 (Rattus norvegicus, UniProt O70151); assay: Enzymatic assay of ACC inhibitors, rat ACC2; format: biochemical
rACC2, sequence (O70151 1-2456): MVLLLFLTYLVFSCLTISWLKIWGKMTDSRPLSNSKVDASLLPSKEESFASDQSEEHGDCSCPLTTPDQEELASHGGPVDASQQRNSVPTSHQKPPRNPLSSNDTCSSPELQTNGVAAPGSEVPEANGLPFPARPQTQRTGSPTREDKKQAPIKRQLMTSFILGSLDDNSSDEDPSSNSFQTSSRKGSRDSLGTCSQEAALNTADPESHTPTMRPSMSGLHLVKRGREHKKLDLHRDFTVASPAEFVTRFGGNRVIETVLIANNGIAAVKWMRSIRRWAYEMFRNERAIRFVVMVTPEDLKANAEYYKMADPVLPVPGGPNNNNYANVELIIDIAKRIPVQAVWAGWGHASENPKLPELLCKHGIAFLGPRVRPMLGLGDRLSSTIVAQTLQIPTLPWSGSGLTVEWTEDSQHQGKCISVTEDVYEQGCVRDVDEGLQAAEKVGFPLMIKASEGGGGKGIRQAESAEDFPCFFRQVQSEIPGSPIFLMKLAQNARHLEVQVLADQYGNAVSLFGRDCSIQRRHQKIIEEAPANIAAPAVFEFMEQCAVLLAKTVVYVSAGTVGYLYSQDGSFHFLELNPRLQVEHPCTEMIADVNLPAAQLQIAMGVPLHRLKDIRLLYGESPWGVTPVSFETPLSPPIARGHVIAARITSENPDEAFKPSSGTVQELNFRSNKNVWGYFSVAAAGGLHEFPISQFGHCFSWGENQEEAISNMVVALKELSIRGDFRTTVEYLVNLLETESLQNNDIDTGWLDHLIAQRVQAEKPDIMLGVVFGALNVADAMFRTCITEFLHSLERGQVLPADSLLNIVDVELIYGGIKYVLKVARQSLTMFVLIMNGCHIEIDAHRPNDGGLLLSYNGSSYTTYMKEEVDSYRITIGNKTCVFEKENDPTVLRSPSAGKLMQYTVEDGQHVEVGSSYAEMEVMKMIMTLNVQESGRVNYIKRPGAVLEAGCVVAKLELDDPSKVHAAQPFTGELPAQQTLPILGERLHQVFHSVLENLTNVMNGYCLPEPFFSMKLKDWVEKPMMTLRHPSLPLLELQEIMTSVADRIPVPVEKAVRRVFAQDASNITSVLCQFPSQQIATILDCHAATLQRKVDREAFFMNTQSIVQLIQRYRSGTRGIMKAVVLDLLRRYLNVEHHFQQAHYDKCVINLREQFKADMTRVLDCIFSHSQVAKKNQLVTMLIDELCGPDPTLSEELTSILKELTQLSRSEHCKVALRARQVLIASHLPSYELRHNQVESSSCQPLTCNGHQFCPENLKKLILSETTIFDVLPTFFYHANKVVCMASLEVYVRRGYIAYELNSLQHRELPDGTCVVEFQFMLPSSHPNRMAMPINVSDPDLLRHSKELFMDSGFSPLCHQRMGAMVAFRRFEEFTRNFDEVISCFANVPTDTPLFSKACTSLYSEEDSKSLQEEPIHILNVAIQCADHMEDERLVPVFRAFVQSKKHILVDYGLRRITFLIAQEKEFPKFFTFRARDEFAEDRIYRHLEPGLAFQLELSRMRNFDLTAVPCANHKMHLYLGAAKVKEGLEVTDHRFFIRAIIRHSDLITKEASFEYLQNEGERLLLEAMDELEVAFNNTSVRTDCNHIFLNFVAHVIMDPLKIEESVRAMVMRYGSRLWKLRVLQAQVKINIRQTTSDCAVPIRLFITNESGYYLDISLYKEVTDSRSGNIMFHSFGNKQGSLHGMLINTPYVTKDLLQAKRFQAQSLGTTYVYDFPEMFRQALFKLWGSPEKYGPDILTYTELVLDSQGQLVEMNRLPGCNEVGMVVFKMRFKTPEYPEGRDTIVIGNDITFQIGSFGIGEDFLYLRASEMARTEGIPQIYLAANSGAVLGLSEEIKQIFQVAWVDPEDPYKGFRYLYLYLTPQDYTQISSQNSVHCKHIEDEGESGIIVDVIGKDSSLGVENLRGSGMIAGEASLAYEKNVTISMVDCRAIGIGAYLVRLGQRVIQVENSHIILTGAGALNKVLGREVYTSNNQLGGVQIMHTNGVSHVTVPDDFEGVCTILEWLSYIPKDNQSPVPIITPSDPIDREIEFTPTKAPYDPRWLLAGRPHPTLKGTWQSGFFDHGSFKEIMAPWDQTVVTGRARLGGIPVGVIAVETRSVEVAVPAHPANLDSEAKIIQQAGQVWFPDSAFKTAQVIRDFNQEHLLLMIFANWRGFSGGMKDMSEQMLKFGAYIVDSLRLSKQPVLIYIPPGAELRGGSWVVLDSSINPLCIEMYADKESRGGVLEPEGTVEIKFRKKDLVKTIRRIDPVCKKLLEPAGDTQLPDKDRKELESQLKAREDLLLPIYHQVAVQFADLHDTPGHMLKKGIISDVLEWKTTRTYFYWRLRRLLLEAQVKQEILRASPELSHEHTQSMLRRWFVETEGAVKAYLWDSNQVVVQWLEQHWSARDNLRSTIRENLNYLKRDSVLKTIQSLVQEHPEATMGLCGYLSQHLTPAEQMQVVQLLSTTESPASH
Method: (§1) The enzymatic activity of ACC and its inhibition by test substances were determined by a luminometric assay. The reaction mixture contained 50 mM tris acetate (Merck, #1.08382.1000), pH 7.5, 250 μM acetyl coenzyme A (Sigma, #A2181),16 mM NaHCO3 (Merck, #1.06329.0500), 0.9 mg/ml bovine serum albumin (Sigma, #A8806), 25 μM ATP (Sigma, #A7699), 1.1 μM β-mercaptoethanol (Roth, #4227,1), 4.3 mM magnesium acetate ((Merck, #1.05819.0250), 10 mM sodium citrate (Merck, #1.06448.0500) and 200-400 ng of the ACC preparations. The mixture also contained a test compound. The test compounds were each dissolved in 10 mM DMSO and were assayed at final concentrations of 0 μM, 0.01 μM, 0.03 μM, 0.1 μM, 0.3 μM, 1 μM, 3 μM, 10 μM, 30 μM and 100 μM. The final concentration of the DMSO in the assay was 0.1% (v/v). The reaction was started by adding ACC and was carried out at 37° C. for 90 min. The reaction was then stopped by adding 150 μl of 0.5 M tris acetate. 10 μl of the mixture were removed and mixed with 90 μl of ATP monitoring reagent (Cambrex, #LT27-002). After incubation for 10 min, the luminescence was measured in a luminometer (Tecan Genios Pro).
The crude luminescence data were transferred into a Microsoft Excel file. The luminescence measured in the absence of ACC in the reaction mixture was defined as 100%. The value in the presence of ACC with 0 μM test compound was set at 0%. Dose-effect plots were calculated with the XL.Fit program as specified by the producer (IDBS). The IC50 of a test substance was the concentration of the test compound at which a luminescence of 50% was measured.

[1] = tested on: C2C12 mouse muscle cell line; assay: Palmitate oxidation in a mouse muscle cell line (C2C12); format: cell-based; conditions: 10 μM
Method: In another pharmacological test both compounds were tested for palmitate oxidation in a mouse muscle cell line (C2C12) which is also mediated by ACC inhibition.

rACC1 = rACC1 (Rattus norvegicus (Rat), UniProt P11497); assay: Enzymatic assay of ACC inhibitors, rat ACC1; format: biochemical
Method: as §1, with “10 μl of the mixture were removed and mixed with 90 μl of ATP monitoring reagent (Cambrex, #LT27-002).” left out
The crude luminescence data were transferred into a Microsoft Excel file. The luminescence measured in the absence of ACC in the reaction mixture was defined as 100%. […] Dose-effect plots were calculated with the XL.Fit program as specified by the producer (IDBS). […]

human ACC1 = human ACC1 (Homo sapiens (Human), UniProt Q13085)
[2] = relative to comparative example 59
[3] = relative to comparative example 59, respective rat ACC isoforms

human ACC2, sequence (O00763 151-2458): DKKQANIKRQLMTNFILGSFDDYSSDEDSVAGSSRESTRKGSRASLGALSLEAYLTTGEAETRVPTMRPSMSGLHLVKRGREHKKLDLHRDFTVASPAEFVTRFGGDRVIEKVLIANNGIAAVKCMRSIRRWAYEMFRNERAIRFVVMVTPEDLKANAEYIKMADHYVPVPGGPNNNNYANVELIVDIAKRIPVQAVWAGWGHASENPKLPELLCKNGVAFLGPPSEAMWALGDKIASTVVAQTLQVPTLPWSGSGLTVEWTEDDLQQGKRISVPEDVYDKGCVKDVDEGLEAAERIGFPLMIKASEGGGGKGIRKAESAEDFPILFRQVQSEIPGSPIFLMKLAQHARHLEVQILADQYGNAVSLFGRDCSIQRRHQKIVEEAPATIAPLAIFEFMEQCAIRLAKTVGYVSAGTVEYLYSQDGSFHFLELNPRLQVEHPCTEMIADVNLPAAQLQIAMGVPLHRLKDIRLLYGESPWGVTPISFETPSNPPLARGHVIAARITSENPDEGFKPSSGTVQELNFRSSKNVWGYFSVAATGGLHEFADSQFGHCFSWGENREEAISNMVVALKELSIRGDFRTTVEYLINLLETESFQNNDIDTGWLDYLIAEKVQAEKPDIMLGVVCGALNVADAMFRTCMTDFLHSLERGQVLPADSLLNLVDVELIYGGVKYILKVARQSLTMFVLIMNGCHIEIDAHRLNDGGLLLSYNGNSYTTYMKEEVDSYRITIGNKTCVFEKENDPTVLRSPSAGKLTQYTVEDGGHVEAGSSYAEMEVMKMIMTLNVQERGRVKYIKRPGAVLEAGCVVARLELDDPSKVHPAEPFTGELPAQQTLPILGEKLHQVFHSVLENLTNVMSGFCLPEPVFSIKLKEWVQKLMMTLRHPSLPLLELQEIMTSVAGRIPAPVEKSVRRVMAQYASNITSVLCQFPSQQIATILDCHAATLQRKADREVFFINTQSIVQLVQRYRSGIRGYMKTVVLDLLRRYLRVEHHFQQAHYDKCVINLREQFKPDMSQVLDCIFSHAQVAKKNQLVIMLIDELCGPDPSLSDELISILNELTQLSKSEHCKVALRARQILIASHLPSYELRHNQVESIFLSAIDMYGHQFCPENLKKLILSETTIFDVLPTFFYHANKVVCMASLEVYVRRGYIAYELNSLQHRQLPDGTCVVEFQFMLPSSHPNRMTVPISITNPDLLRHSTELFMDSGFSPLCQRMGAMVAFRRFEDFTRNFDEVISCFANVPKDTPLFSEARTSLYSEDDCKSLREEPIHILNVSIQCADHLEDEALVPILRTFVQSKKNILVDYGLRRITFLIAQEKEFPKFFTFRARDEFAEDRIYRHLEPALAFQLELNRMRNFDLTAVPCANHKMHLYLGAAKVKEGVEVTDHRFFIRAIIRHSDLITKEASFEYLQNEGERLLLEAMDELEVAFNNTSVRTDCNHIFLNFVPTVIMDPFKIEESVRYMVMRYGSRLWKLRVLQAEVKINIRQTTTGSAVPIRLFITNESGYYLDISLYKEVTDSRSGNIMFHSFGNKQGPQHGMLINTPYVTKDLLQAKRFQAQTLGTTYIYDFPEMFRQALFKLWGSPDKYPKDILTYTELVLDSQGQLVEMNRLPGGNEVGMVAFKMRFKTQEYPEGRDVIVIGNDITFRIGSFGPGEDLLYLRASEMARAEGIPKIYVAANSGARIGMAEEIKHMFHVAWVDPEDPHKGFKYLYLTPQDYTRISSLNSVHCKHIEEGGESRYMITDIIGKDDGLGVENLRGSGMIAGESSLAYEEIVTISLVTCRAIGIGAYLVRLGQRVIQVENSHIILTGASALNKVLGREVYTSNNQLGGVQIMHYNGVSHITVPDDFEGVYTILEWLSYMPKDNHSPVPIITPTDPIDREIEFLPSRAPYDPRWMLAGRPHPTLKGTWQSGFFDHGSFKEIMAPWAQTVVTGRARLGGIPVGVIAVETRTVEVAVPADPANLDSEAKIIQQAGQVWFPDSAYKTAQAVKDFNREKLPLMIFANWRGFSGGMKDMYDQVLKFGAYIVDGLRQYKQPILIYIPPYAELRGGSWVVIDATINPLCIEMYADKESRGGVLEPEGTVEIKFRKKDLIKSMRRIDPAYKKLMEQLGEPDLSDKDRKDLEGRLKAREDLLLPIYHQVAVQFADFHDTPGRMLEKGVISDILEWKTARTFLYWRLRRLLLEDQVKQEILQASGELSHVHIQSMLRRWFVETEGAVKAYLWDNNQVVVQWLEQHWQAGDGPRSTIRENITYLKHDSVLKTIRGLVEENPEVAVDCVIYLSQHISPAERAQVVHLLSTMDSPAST

SMILES | IC50 (human ACC2) | other results
CC(=O)NC(C)CCc1ccc(Oc2cnc(OC(C)C)cn2)cc1 (centres unmarked) [Example 49, N-{3-[4-(5-Isopropoxypyrazin-2-yloxy)phenyl]-1-methylpropyl}acetamide] | 1200 nM | 
CC(=O)NCCC[C@H]1OC[C@H](Oc2ccc(OC3CCCC3)cc2)CO1 [Example 6, trans-N-{3-[5-(4-Cyclopentyloxyphenoxy)-[1,3]dioxan-2-yl]propyl}acetamide] | 200 nM | 
CC(=O)N[C@@H](C)COc1ccc(Oc2ccc(OC(C)C)cc2)nc1 [Example 39, N—{(S)-2-[6-(4-Isopropoxyphenoxy)pyridin-3-yloxy]-1-methylethyl}acetamide] | 2500 nM | 
CC(=O)N[C@@H](C)COc1ccc(Oc2ccc(OC(C)C)cc2)cc1 [Example 59, N—{(S)-2-[4-(4-Isopropoxyphenoxy)phenoxy]-1-methylethyl}acetamide, reference compound] |  | IC50 (rACC2): 1500 nM; stimulation of cellular fat (palmitate) oxidation [1]: no effect
CC(=O)NCCC[C@H]1OC[C@H](Oc2ncc(OC(C)C)cc2Cl)CO1 [Example 25, trans-N-{3-[5-(3-chloro-5-isopropoxypyridin-2-yloxy)-[1,3]dioxan-2-yl]propyl}acetamide] | 380 nM | 
CC(=O)N[C@@H](C)COc1ccc(Oc2ccc(OC(C)C)cn2)cc1 [Example 29, N—{(S)-2-[4-(5-Isopropoxypyridin-2-yloxy)phenoxy]-1-methylethyl}acetamide] | 1200 nM | 
CCCOc1ccc(Oc2ccc(CCC(C)NC(C)=O)cc2)nc1 (centres unmarked) [Example 11, N-{1-Methyl-3-[4-(5-propoxypyridin-2-yloxy)phenyl]propyl}acetamide] | 140 nM | 
CC(=O)NCCC[C@H]1OC[C@H](Oc2ccc(OCc3ccccc3)cn2)CO1 [Example 17, trans-N-{3-[5-(5-benzyloxypyridin-2-yloxy)-[1,3]dioxan-2-yl]propyl}acetamide] | 50 nM | 
CC(CCc1ccc(Oc2ccc(OC(C)C)nc2)cc1)NC=O (centres unmarked) [Example 45, N-{3-[4-(6-Isopropoxypyridin-3-yloxy)phenyl]-1-methylpropyl}formamide] | 670 nM | 
CC(=O)NC(C)CCc1ccc(Oc2ccc(OC3CCCC3)cn2)cc1 (centres unmarked) [Example 2, N-{3-[4-(5-Cyclopentyloxypyridin-2-yloxy)phenyl]-1-methylpropyl}acetamide] | 140 nM | 
CC(=O)NC(C)CCc1ccc(Oc2cnc(OC(C)C)nc2)cc1 (centres unmarked) [Example 40, N-{3-[4-(2-Isopropoxypyrimidin-5-yloxy)phenyl]-1-methylpropyl}acetamide] | 740 nM | 
CC(=O)NCCC[C@H]1OC[C@H](Oc2ccc(OC(C)C)cn2)CO1 [Example 23, trans-N-{3-[5-(5-isopropoxypyridin-2-yloxy)-[1,3]dioxan-2-yl]-propyl}acetamide] | 2000 nM | 
COC(=O)NC(C)CCc1ccc(Oc2ccc(OC(C)C)nc2)cc1 (centres unmarked) [Example 46, Methyl {3-[4-(6-isopropoxypyridin-3-yloxy)phenyl]-1-methylpropyl}carbamate] | 210 nM | 
CC(=O)NC(C)CCc1cnc(Oc2ccc(OCc3ccccc3)nc2)nc1 (centres unmarked) [Example 37, N-{3-[2-(6-Benzyloxypyridin-3-yloxy)pyrimidin-5-yl]-1-methylpropyl}acetamide] | 5900 nM | 
CC(=O)NC(C)COc1ccc(Oc2ccc(OC(C)C)cn2)cc1 (centres unmarked) [Example 27, N-{2-[4-(5-Isopropoxypyridin-2-yloxy)phenoxy]-1-methylethyl}acetamide] | 1300 nM | 

Continued by falling IC50 (human ACC2), values first:

IC50 (human ACC2) | SMILES | other results
3600 nM | CC(=O)NC(C)CCc1ccc(Oc2ccc(OC3CCOC3)cn2)cc1 (centres unmarked) [Example 20, N-(1-Methyl-3-{4-[5-(tetrahydrofuran-3-yloxy)pyridin-2-yloxy]phenyl}propyl)acetamide] | 
1300 nM | CC(=O)NC(C)CCc1ccc(Oc2ncc(OC(C)C)cc2Cl)cc1 (centres unmarked) [Example 32, N-{3-[4-(3-Chloro-5-isopropoxypyridin-2-yloxy)phenyl]-1-methylpropyl}acetamide] | 
900 nM | CC(CCc1ccc(Oc2ccc(OC(C)C)nc2)cc1)NC(=O)CO (centres unmarked) [Example 48, 2-Hydroxy-N-{3-[4-(6-isopropoxypyridin-3-yloxy)phenyl]-1-methylpropyl}acetamide] | 
400 nM | CC(=O)NCCC[C@H]1OC[C@H](Oc2ccc(OCc3ccccc3)cc2)CO1 [Example 4, trans-N-{3-[5-(4-benzyloxyphenoxy)-[1,3]dioxan-2-yl]propyl}acetamide] | 
170 nM | CC(=O)NC(C)CCc1ccc(Oc2ccc(OCC3CC3)nc2)cc1 (centres unmarked) [Example 50, N-{3-[4-(6-Cyclopropylmethoxypyridin-3-yloxy)phenyl]-1-methylpropyl}acetamide] | 
150 nM | CC(CCc1ccc(Oc2ccc(OC(C)C)nc2)cc1)NC(N)=O (centres unmarked) [Example 47, {3-[4-(6-Isopropoxypyridin-3-yloxy)phenyl]-1-methylpropyl}urea] | 
140 nM | CC(=O)NC(C)CCc1ccc(Oc2ccc(OCc3ccccc3)cn2)cc1 (centres unmarked) [Example 9, N-{3-[4-(5-Benzyloxypyridin-2-yloxy)phenyl]-1-methylpropyl}acetamide] | 
100 nM | CC(=O)N[C@@H](C)CCc1ccc(Oc2ccc(OCc3ccccc3)cn2)cc1 [Example 19, N—{(S)-3-[4-(5-Benzyloxypyridin-2-yloxy)phenyl]-1-methylpropyl}acetamide] | 
90 nM | CC(CCc1ccc(Oc2ccc(OC(C)C)nc2)cc1)NC(=O)C1CC1 (centres unmarked) [Example 44, N-{3-[4-(6-Isopropoxypyridin-3-yloxy)phenyl]-1-methylpropyl}cyclopropanecarboxamide] | 
80 nM | CC(=O)NC(C)CCC1CCC(Oc2ccc(OC(C)C)nc2)CC1 (centres unmarked) [Example 52, N-{3-[4-(6-Isopropoxypyridin-3-yloxy)cyclohexyl]-1-methylpropyl}acetamide] | 
70 nM | CC(=O)NC(C)CCc1ccc(Oc2ccc(OCc3ccccc3)nc2)cc1 (centres unmarked) [Example 36, N-{3-[4-(6-Benzyloxypyridin-3-yloxy)phenyl]-1-methylpropyl}acetamide] | 
60 nM | CC(=O)NC(C)CCc1ccc(Oc2ccc(OC(C)C)nc2)cc1 (centres unmarked) [Example 33, N-{3-[4-(6-Isopropoxypyridin-3-yloxy)phenyl]-1-methylpropyl}acetamide] | 
50 nM | CC(=O)NC(C)CCc1ccc(Oc2ccc(OCC3CCC3)cn2)cc1 (centres unmarked) [Example 12, N-{3-[4-(5-Cyclobutylmethoxypyridin-2-yloxy)phenyl]-1-methylpropyl}acetamide] | 
30 nM | CC(=O)N[C@@H](C)CCc1ccc(Oc2ccc(OC(C)C)nc2)cc1 [Example 35, N—{(S)-3-[4-(6-Isopropoxypyridin-3-yloxy)phenyl]-1-methylpropyl}acetamide] | times higher potency than example 59, human ACC2 (human ACC2; [2]): approx. 5 times; IC50 (rACC2; rat ACC2, read-out: IC50 rACC2): 400 nM; times higher potency than example 59, rat ACC2 (rACC2; [3]): > 3 times; IC50 (rACC1; rat ACC1): 170 nM; times higher potency than example 59, rat ACC1 (rACC1; [3]): > 3 times; stimulation of cellular fat (palmitate) oxidation [1]: 1.7 fold; IC50 (human ACC1; read-out: IC50 hACC (human ACC1), human ACC1, table row printed as hACC): 190 nM; times higher potency than example 59, human ACC1 (human ACC1; [2]): ~40 times
